These results are taken from the supplement of paper PMC10627819.

Test in all cases: Bliss interaction score (quartile over a dose matrix) (fitness difference); higher = more antagonism (negative = synergy)
Test [1] has as its system S. aureus Newman. The method, boiled down:
(§1)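 At entry into stationary phase, OD595 was recorded and divided by the robust mean of the no-drug wells on that plate, with any value above 1 set to 1. This gives the fitness measure used throughout. Single-drug fitness was inferred from combination data, and the Bliss score, observed minus product-expected fitness, is shown as quartiles across technical, biological and donor/recipient replicates.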

The test system of test [2] is B. subtilis 168. The method, boiled down:
as §1

Test [3] has as its system S. aureus DSM 20231. The method, boiled down: as §1
Test [4] relates to S. pneumoniae D39V. The method, boiled down:
as §1
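Also: first quartile when negative (synergy) and third quartile when positive (antagonism).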

Regarding `O=C(O[C@@H]1Cc2c(O)cc(O)cc2O[C@@H]1c1cc(O)c(O)c(O)c1)c1cc(O)c(O)c(O)c1` [EGCG] + CC[C@H]1OC(=O)[C@H](C)C(=O)[C@H](C)[C@@H](O[C@@H]2O[C@H](C)C[C@H](N(C)C)[C@H]2O)[C@](C)(OC)C[C@@H](C)C(=O)[C@H](C)[C@H]2N(CCCCn3cnc(-c4cccnc4)c3)C(=O)O[C@]12C [Telithromycin], the Bliss interaction score in test [1] was 0.0859; in test [2] it was 0.0403; in test [3], -0.079; in test [4] it was 0.0892.

For the compound `O=C(O[C@@H]1Cc2c(O)cc(O)cc2O[C@@H]1c1cc(O)c(O)c(O)c1)c1cc(O)c(O)c(O)c1` [EGCG] + CC[C@H]1OC(=O)[C@H](C)[C@@H](O[C@H]2C[C@@](C)(OC)[C@@H](O)[C@H](C)O2)[C@H](C)[C@@H](O[C@@H]2O[C@H](C)C[C@H](N(C)C)[C@H]2O)[C@](C)(O)C[C@@H](C)C(=O)[C@H](C)[C@@H](O)[C@]1(C)O [Erythromycin], the Bliss interaction score was -0.0582 in test [1], 0.0527 in test [2], -0.0558 in test [3] and 0.0597 in test [4].

In the case of `O=C(O[C@@H]1Cc2c(O)cc(O)cc2O[C@@H]1c1cc(O)c(O)c(O)c1)c1cc(O)c(O)c(O)c1` [EGCG] + CN[C@H](CC(C)C)C(=O)N[C@H]1C(=O)N[C@@H](CC(N)=O)C(=O)N[C@H]2C(=O)N[C@H]3C(=O)N[C@H](C(=O)N[C@H](C(=O)O)c4cc(O)cc(O)c4-c4cc3ccc4O)[C@H](O[C@H]3C[C@](C)(N)[C@@H](O)[C@H](C)O3)c3ccc(c(Cl)c3)Oc3cc2cc(c3O[C@@H]2O[C@H](CO)[C@@H](O)[C@H](O)[C@H]2O[C@H]2C[C@](C)(NCc3ccc(-c4ccc(Cl)cc4)cc3)[C@@H](O)[C@H](C)O2)Oc2ccc(cc2Cl)[C@H]1O [Oritavancin], the Bliss interaction score in test [1] was 0.318; in test [2] it was 0.0249; in test [3], 0.176; in test [4] it was 0.0545.

As to `O=C(O[C@@H]1Cc2c(O)cc(O)cc2O[C@@H]1c1cc(O)c(O)c(O)c1)c1cc(O)c(O)c(O)c1` [EGCG] + CO[C@@]12[C@H](COC(N)=O)C3=C(C(=O)C(C)=C(N)C3=O)N1C[C@@H]1N[C@@H]12 [MitomycinC], the Bliss interaction score is 0.051 in test [1], -0.0639 in test [2], -0.0345 in test [3] and 0.0987 in test [4].

`O=C(O[C@@H]1Cc2c(O)cc(O)cc2O[C@@H]1c1cc(O)c(O)c(O)c1)c1cc(O)c(O)c(O)c1` [EGCG] + Oc1cc(Cl)ccc1Oc1ccc(Cl)cc1Cl [Triclosan]: the Bliss interaction score in test [1] was 0.0222; in test [2], -0.0336; in test [3] it was 0.0962; in test [4], -0.0791.

With `CC(=O)O[C@H]1C[C@@]2(C)[C@@H](C[C@@H](O)[C@H]3[C@@]4(C)CC[C@@H](O)[C@@H](C)[C@@H]4CC[C@@]32C)/C1=C(\CCC=C(C)C)C(=O)O` [Fusidic acid] + C/C(=C\C(=O)OCCCCCCCCC(=O)O)C[C@@H]1OC[C@H](C[C@@H]2O[C@H]2[C@@H](C)[C@H](C)O)[C@@H](O)[C@H]1O [Pseudomonic acid], the Bliss interaction score in test [1] was 0.031; in test [2], -0.0331; in test [3] it was 0.0339; in test [4] it was 0.1.

Regarding `CC(=O)O[C@H]1C[C@@]2(C)[C@@H](C[C@@H](O)[C@H]3[C@@]4(C)CC[C@@H](O)[C@@H](C)[C@@H]4CC[C@@]32C)/C1=C(\CCC=C(C)C)C(=O)O` [Fusidic acid] + CC1(C)S[C@@H]2[C@H](NC(=O)Cc3ccccc3)C(=O)N2[C@H]1C(=O)O [PenicillinG], the Bliss interaction score in test [1] is -0.0384; in test [2] it was 0.0421; in test [3] it was 0.0382; in test [4] it was 0.0666.

Regarding `CC(=O)O[C@H]1C[C@@]2(C)[C@@H](C[C@@H](O)[C@H]3[C@@]4(C)CC[C@@H](O)[C@@H](C)[C@@H]4CC[C@@]32C)/C1=C(\CCC=C(C)C)C(=O)O` [Fusidic acid] + CC1=C\[C@@H](O)CC(=O)Cc2nc(co2)C(=O)N2CCC=C2C(=O)O[C@H](C(C)C)[C@H](C)/C=C/C(=O)NC\C=C\1 [Virginiamycin M1], the Bliss interaction score in test [1] was -0.044; in test [2] it was 0.0743; in test [3], 0.0345; in test [4], 0.0996.

On to `CC(=O)O[C@H]1C[C@@]2(C)[C@@H](C[C@@H](O)[C@H]3[C@@]4(C)CC[C@@H](O)[C@@H](C)[C@@H]4CC[C@@]32C)/C1=C(\CCC=C(C)C)C(=O)O` [Fusidic acid] + CC(=O)NC[C@H]1CN(c2ccc(N3CCOCC3)c(F)c2)C(=O)O1 [Linezolid], for which the Bliss interaction score in test [1] is -0.0198; in test [2] it was -0.141; in test [3], -0.0285; in test [4] it was -0.1.

For the compound `CC(=O)O[C@H]1C[C@@]2(C)[C@@H](C[C@@H](O)[C@H]3[C@@]4(C)CC[C@@H](O)[C@@H](C)[C@@H]4CC[C@@]32C)/C1=C(\CCC=C(C)C)C(=O)O` [Fusidic acid] + CC(C1CCC(C(O1)OC2C(CC(C(C2O)OC3C(C(C(CO3)(C)O)NC)O)N)N)N)NC [Gentamicin], the Bliss interaction score in test [1] (main component drawn) is 0.0572; in test [2] (main component drawn) it was -0.0712; in test [3] (main component drawn), 0.034; in test [4] (main component drawn) it was -0.0713.

`CC(=O)O[C@H]1C[C@@]2(C)[C@@H](C[C@@H](O)[C@H]3[C@@]4(C)CC[C@@H](O)[C@@H](C)[C@@H]4CC[C@@]32C)/C1=C(\CCC=C(C)C)C(=O)O` [Fusidic acid] + CCC(C)C1C(=O)NC(=C)C(=O)NC(C(=O)NC(CSCC(C(=O)N1)NC(=O)/C(=C/C)/NC(=O)C(C(C)CC)N)C(=O)NC2C(SCC(NC(=O)CNC(=O)C3CCCN3C2=O)C(=O)NC(CCCCN)C(=O)NC4C(SCC(NC(=O)CNC(=O)C(NC(=O)C(NC(=O)C(NC(=O)CNC4=O)C)CC(C)C)CCSC)C(=O)NC(CC(=O)N)C(=O)NC(CCSC)C(=O)NC(CCCCN)C(=O)NC5C(SCC6C(=O)NC(C(=O)NC(CSC(C(C(=O)N6)NC(=O)C(NC5=O)C)C)C(=O)NC(CO)C(=O)NC(C(C)CC)C(=O)NC(CC7=CN=CN7)C(=O)NC(C(C)C)C(=O)NC(=C)C(=O)NC(CCCCN)C(=O)O)CC8=CN=CN8)C)C)C)CC(C)C [Nisin]: the Bliss interaction score in test [1] (main component drawn) is -0.0346; in test [2] (main component drawn), -0.0332; in test [3] (main component drawn) it was 0.0299; in test [4] (main component drawn), -0.0281.

On to `CC(=O)O[C@H]1C[C@@]2(C)[C@@H](C[C@@H](O)[C@H]3[C@@]4(C)CC[C@@H](O)[C@@H](C)[C@@H]4CC[C@@]32C)/C1=C(\CCC=C(C)C)C(=O)O` [Fusidic acid] + CCCCCCCCCC(=O)N[C@@H]1[C@H]([C@@H]([C@H](O[C@H]1OC2=C3C=C4C=C2OC5=C(C=C(C=C5)[C@H]([C@H]6C(=O)N[C@@H](C7=C(C(=CC(=C7)O)OC8[C@H]([C@H]([C@@H]([C@H](O8)CO)O)O)O)C9=C(C=CC(=C9)[C@H](C(=O)N6)NC(=O)[C@@H]4NC(=O)[C@@H]1C2=CC(=CC(=C2)OC2=C(C=CC(=C2)[C@H](C(=O)N[C@H](CC2=CC(=C(O3)C=C2)Cl)C(=O)N1)N)O)O)O)C(=O)O)O[C@H]1[C@@H]([C@H]([C@@H]([C@H](O1)CO)O)O)NC(=O)C)Cl)CO)O)O [Teicoplanin], for which the Bliss interaction score in test [1] (main component drawn) is -0.0424; in test [2] (main component drawn) it was -0.0459; in test [3] (main component drawn), 0.0374; in test [4] (main component drawn), 0.0761.

Regarding `CC(=O)O[C@H]1C[C@@]2(C)[C@@H](C[C@@H](O)[C@H]3[C@@]4(C)CC[C@@H](O)[C@@H](C)[C@@H]4CC[C@@]32C)/C1=C(\CCC=C(C)C)C(=O)O` [Fusidic acid] + CCC[C@@H]1C[C@@H](C(=O)N[C@@H]([C@H]2O[C@H](SC)[C@H](O)[C@@H](O)[C@H]2O)[C@@H](C)O)N(C)C1 [Lincomycin], the Bliss interaction score in test [1] was -0.0595; in test [2] it was 0.0915; in test [3] it was -0.0572; in test [4] it was -0.0651.

Turning to `CC(=O)O[C@H]1C[C@@]2(C)[C@@H](C[C@@H](O)[C@H]3[C@@]4(C)CC[C@@H](O)[C@@H](C)[C@@H]4CC[C@@]32C)/C1=C(\CCC=C(C)C)C(=O)O` [Fusidic acid] + CCN(CC)CCOC(=O)c1ccc(N)cc1 [Procaine], the Bliss interaction score in test [1] is -0.0177; in test [2], -0.0381; in test [3] it was -0.0218; in test [4], 0.0981.

For `CC(=O)O[C@H]1C[C@@]2(C)[C@@H](C[C@@H](O)[C@H]3[C@@]4(C)CC[C@@H](O)[C@@H](C)[C@@H]4CC[C@@]32C)/C1=C(\CCC=C(C)C)C(=O)O` [Fusidic acid] + CC[C@H]1OC(=O)[C@H](C)C(=O)[C@H](C)[C@@H](O[C@@H]2O[C@H](C)C[C@H](N(C)C)[C@H]2O)[C@](C)(OC)C[C@@H](C)C(=O)[C@H](C)[C@H]2N(CCCCn3cnc(-c4cccnc4)c3)C(=O)O[C@]12C [Telithromycin], the Bliss interaction score was 0.0161 in test [1], -0.0755 in test [2], -0.0334 in test [3] and -0.0347 in test [4].

In the case of `CC(=O)O[C@H]1C[C@@]2(C)[C@@H](C[C@@H](O)[C@H]3[C@@]4(C)CC[C@@H](O)[C@@H](C)[C@@H]4CC[C@@]32C)/C1=C(\CCC=C(C)C)C(=O)O` [Fusidic acid] + CN1C2=CC=CC=C2N=C3C1=CC=CC3=O [Pyocyanin], the Bliss interaction score in test [1] stood at 0.0295; in test [2] it was 0.0385; in test [3], 0.0421; in test [4], 0.0648.

With `CC(=O)O[C@H]1C[C@@]2(C)[C@@H](C[C@@H](O)[C@H]3[C@@]4(C)CC[C@@H](O)[C@@H](C)[C@@H]4CC[C@@]32C)/C1=C(\CCC=C(C)C)C(=O)O` [Fusidic acid] + CN(C)C(=O)C(CCN1CCC(O)(c2ccc(Cl)cc2)CC1)(c1ccccc1)c1ccccc1 [Loperamide], the Bliss interaction score in test [1] is 0.0269; in test [2], -0.0873; in test [3], 0.0226; in test [4] it was 0.128.
